# Reference: patent US8143216B2, “Modified human growth hormone” (Ambrx, Inc., priority 2004, dated 2012)
# T1: human growth hormone receptor on IM-9 cells (Homo sapiens, UniProt P10912)
# T1 construct: host or cells: human IM-9 lymphocyte cell line
# T1 sequence (P10912 19-638): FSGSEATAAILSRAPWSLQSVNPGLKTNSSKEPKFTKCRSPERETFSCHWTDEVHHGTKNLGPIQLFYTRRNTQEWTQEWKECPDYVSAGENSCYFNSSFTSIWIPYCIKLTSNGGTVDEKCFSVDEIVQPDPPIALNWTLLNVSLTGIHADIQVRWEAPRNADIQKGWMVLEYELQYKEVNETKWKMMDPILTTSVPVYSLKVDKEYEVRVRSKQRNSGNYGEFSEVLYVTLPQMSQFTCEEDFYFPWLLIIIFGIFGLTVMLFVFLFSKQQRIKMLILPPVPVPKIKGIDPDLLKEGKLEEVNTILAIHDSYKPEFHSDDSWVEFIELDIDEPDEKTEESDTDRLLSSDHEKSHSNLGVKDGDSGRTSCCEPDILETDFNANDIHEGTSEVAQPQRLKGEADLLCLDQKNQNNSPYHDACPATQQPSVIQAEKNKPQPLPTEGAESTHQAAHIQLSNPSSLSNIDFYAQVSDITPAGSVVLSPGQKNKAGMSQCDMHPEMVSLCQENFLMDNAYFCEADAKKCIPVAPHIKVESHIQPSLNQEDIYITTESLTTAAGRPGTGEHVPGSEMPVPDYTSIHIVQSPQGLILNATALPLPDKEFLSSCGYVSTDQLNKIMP
# Key:
# [1] = test system: rat GHR (L43R) expressing BAF3 cell line, 2E2-2B12-F4; test: Proliferation by BrdU labeling; format: cell-based, mouse; details: WHO hGH is expressed as unity
# Experimental: All cell cultures were maintained at 37° C. in a humidified atmosphere of 5% CO2.
# [2] = target: T1, human growth hormone receptor on IM-9 cells; test: IM-9 pSTAT5 bioassay (STAT5 phosphorylation in IM-9 cells); format: cell-based; details: IM-9; WHO hGH is expressed as unity
# Excerpt: (§1) To further assess the biological activity of modified hGH polypeptides, an assay measuring a downstream marker of hGH's interaction with its receptor was used. The interaction of hGH with its endogenously produced receptor leads to the tyrosine phosphorylation of a signal transducer and activator of transcription family member, STAT5, in the human IM-9 lymphocyte cell line. Two forms of STAT5, STAT5A and STAT5B were identified from an IM-9 cDNA library. See, e.g., Silva et al., Mol. Endocrinol. (1996) 10(5):508-518.
# IM-9 cells were stimulated with hGH polypeptides of the present invention. The human IM-9 lymphocytes were purchased from ATCC (Manassas, Va.) and grown in RPMI 1640 supplemented with sodium pyruvate, penicillin, streptomycin (Invitrogen, Carlsbad, San Diego) and 10% heat inactivated fetal calf serum (Hyclone, Logan, Utah). The IM-9 cells were starved overnight in assay media (phenol-red free RPMI, 10 mM Hepes, 1% heat inactivated charcoal/dextran treated FBS, sodium pyruvate, penicillin and streptomycin) before stimulation with a 12-point dose range of hGH polypeptides for 10 min at 37° C. Stimulated cells were fixed with 1% formaldehyde before permeabilization with 90% ice-cold methanol for 1 hour on ice. The level of STAT5 phosphorylation was detected by intra-cellular staining with a primary phospho-STAT5 antibody (Cell Signaling Technology, Beverly, Mass.) at room temperature for 30 min followed by a PE-conjugated secondary antibody. Sample acquisition was performed on the FACS Array with acquired data analyzed on the Flowjo software (Tree Star Inc., Ashland, Oreg.). EC50 values were derived from dose response curves plotted with mean fluorescent intensity (MFI) against protein concentration utilizing SigmaPlot.
# The interaction of hGH with its receptor leads to the tyrosine phosphorylation of a signal transducer and activator of transcription family member, STAT5, in the human IM-9 lymphocyte cell line.
# [3] = test system: rat model of growth hormone deficiency (hypophysectomized rats); test: Efficacy studies of PEGylated hGH in a rat model of growth hormone deficiency (Example 34); format: in vivo
# Experimental: Preclinical efficacy studies were conducted in a rat model of growth hormone deficiency. In this model, the pituitary gland was surgically removed at approximately 4 weeks of age. The body weights of these hypophysectomized rats were monitored after surgery and animals showing less than 7.5 grams of bodyweight gain over a period of 7 days before the study were deemed successfully hypophysectomized and were randomized amongst the treatment groups. Animals showing more than 2.5 g of weight-loss were deemed not healthy and were excluded from the study. The study was initiated approximately 3 weeks after the surgery.
# Animals were dosed weekly (i.e. dosed on days 0 and 7) with either placebo or increasing PEG-^ahGH dose. An additional treatment group received Genotropin or placebo daily. Bodyweights and blood were collected predose and daily. All animals were sacrificed on day 14.
# For this parameter, the AUC is expressed as AUC above the efficacious IGF-1 plasma level. […] In the current study, the baseline IGF-1 level determined from the placebo group throughout the study was 128 ng/mL. An increase of 34 ng/mL over 128 ng/mL estimates an efficacious IGF-1 level of 162 ng/mL. Thus the AUC above 162 ng/mL was integrated. From this analysis, a dose-dependent increase in AUC above efficacious level was observed after each dose interval.
# The duration of IGF-1 levels induced above the estimated efficacious level after the first dose was determined. At the higher doses, the IGF-1 levels had not returned to baseline before the second dose. In these instances, the IGF-1 concentration was extrapolated to the efficacious level using the calculated terminal slopes. From this evaluation, a dose-dependent increase in duration of IGF-1 concentration above the efficacious level was evident.
# Bone growth was used as an additional pharmacodynamic measure to calculate the PEG-^ahGH ED50. Tibias were collected from each animal at the end of the study and immersion fixed in 10% neutral-buffered formalin followed by radiography. There was a clear dose-dependent increase in tibial bone length for the PEG-^ahGH treated animals. Moreover, there was a dose sparing effect compared to the daily Genotropin treated animals. The amount of Genotropin administered over a 7-day interval is equivalent to 2.1 mg/kg of PEG-^ahGH given weekly (i.e., days 0 and 7). An induction of tibial bone length increase similar to Genotropin is shown for PEG-^ahGH at 0.42 to 1.0 mg/kg. This represents a ≧50% dose-sparing effect for PEG-^ahGH when compared to Genotropin.
# [4] = Rat pharmacokinetics: PEG-ahGH plasma concentration in the rat disease model; format: in vivo
# Experimental: The same plasma samples collected for IGF-1 concentration determination were also assayed for PEG-^ahGH concentration. […] The duration of PEG-^ahGH persistence in the circulation, as well as the overall PEG-^ahGH AUC, increased in a dose-dependent manner. […] The PEG-^ahGH exposure results support the dose-dependent efficacy shown above.
# Plasma concentration versus time profiles for PEG-^ahGH administered subcutaneously at various doses in the rat disease model are shown in Example 34, above.
# [5] = target: T1, human growth hormone receptor on IM-9 cells; test: Inhibition of WHO hGH induced phosphorylation of STAT5 in IM-9 cells; format: cell-based
# Excerpt: as §1
# [6] = On day 14, after 2 weekly s.c. doses
# [7] = after the first dose, curve fitting
# [8] = curve fitting of the AUC values from the first dose
# [9] = curve fitting of the Cmax values from the first dose
molecule,measurement,setting,value
F92pAF/G120R-30KPEG: hGH with G120R and p-acetyl-phenylalanine at position 92 linked to 30 kDa PEG,EC50,[1],> 200 µM
same,EC50,[2],> 200 µM
F92pAF/G120R: hGH with p-acetyl-phenylalanine substituted for F92 and a G120R substitution,EC50,[1],> 200 µM
same,EC50,[2],> 200 µM
"PEG-^ahGH: PEGylated hGH of SEQ ID NO:2, para-acetylphenylalanine at position 35 linked via an oxime bond to a linear 30 kDa PEG",bodyweight change on day 14,[3]; 1.0 mg/kg on days 0 and 7,27.02 (+/−3.97) %
same,bodyweight change on day 14 from day 0,[3]; 2.1 mg/kg on days 0 and 7,33.66 (+/−7.55) %
same,"ED50, Duration of IGF-1 Above Efficacious Level",[3]; After single s.c. dose,0.173 mg/kg
same,"ED50, IGF-1 AUC Above Efficacious Level",[3]; After single s.c. dose,0.909 mg/kg
same,"ED50, IGF-1 Induction: IGF-1 Cmax",[3]; After single s.c. dose,0.136 mg/kg
same,"Range of Effect (Eo-Emax), Duration of IGF-1 Above Efficacious Level",[3]; After single s.c. dose,0 to 8.84 days
same,"Range of Effect (Eo-Emax), IGF-1 AUC Above Efficacious Level","[3]; After single s.c. dose, AUC above 162 ng/mL","0-5,029.8 ng × hr/mL"
same,"ED50, Tibial Bone Length",[3]; [6],0.424 mg/kg
same,"Range of Effect (Eo-Emax), Percent Bodyweight Change",[3]; [6],7.17-50.65%
same,"Range of Effect (Eo-Emax), Tibial Bone Length",[3]; [6],30.52-33.67 mm
same,dose-sparing effect over Genotropin (percent bodyweight change),[3]; PEG-ahGH 1.0 mg/kg on days 0 and 7 vs Genotropin 0.3 mg/kg/day,~50%
same,dose-sparing effect when compared to Genotropin (tibial bone length),[3]; PEG-ahGH 0.42 to 1.0 mg/kg weekly vs daily Genotropin equivalent to 2.1 mg/kg weekly,≥ 50%
same,maximum duration of IGF-1 concentration above the efficacious level,[3]; [7],8.84 days
same,minimum duration of IGF-1 concentration above the efficacious level,[3]; [7],0 days
same,Emax IGF-1 AUC above efficacious level,[3]; [8],"5,029.8 ng×hr/mL"
same,Eo IGF-1 AUC above efficacious level,[3]; [8],0 ng·h/mL
same,maximum (Emax) IGF-1 Cmax,[3]; [9],"1,136.2 ng/mL"
same,minimum (Eo) IGF-1 Cmax,[3]; [9],136.7 ng/mL
same,maximum percent bodyweight change,"[3]; day 14, curve fitting",50.65%
same,minimum percent bodyweight change,"[3]; day 14, curve fitting",7.17%
same,plasma IGF-1 levels throughout the study,"[3]; dosed weekly (days 0 and 7) with increasing dose, FIG. 28","robust, dose-dependent increase in IGF-1"
same,plasma concentration (hGH ELISA),"[4]; hypophysectomized rats, PEG-ahGH s.c. on days 0 and 7, Genotropin daily",dose-dependent increase in PEG-^ahGH Cmax
same,apparent terminal half-life,"[4]; in rat, subcutaneous",7.05 (+/−0.47) hours
"rat GHR (L43R) extra cellular domain: extracellular domain of rat GH receptor (amino acids S29-T238) with L43 to R mutation (protein, left off: small tags and cut ends, extracellular domain of rat GH receptor (amino acids S29-T238) with L43 to R mutation) SSGKPRFTKCRSPERETFSCYWTEGDDHNLKVPGSIQLYYARRIAHEWTPEWKECPDYVSAGANSCYFNSSYTSIWIPYCIKLTTNGDLLDEKCFTVDEIVQPDPPIGLNWTLLNISLPGIRGDIQVSWQPPPSADVLKGWIILEYEIQYKEVNETKWKTMSPIWSTSVPLYSLRLDKEHEVRVRSRQRSFEKYSEFSEVLRVTFPQMDT",competition against hGH stimulated pSTAT5 phosphorylation / antagonist potency,[5],compete effectively against hGH stimulated pSTAT5 phoshorylation
